Assay [1] concerns MRSA Used in Animal Model. Nature of the assay: microbe, parasite or virus in culture. As to conditions: Staphylococcus aureus.
The test system of assay [2] is methicillin-resistant Staphylococcus aureus (MRSA) on the skin. Nature of the assay: Efficacy evaluation test by single dose topical application in murine MRSA skin infection model. Type of assay: in vivo, mice. The note with it: preliminary test.
For assay [3], the system named is MRSA. As to conditions: CAMHB with 5% FBS.
Assay [4] has as its system clinically isolated MRSA strain. Description: microbe, parasite or virus in culture. The note with it: Staphylococcus aureus, read-out: anti-MRSA activity (MIC) of boric acid alone.
The test system of assay [5] is MRSA. Description: microbe, parasite or virus in culture. As to conditions: Staphylococcus aureus, read-out: MIC in the presence of 5% FBS, Anti-MRSA activity of 3rd generation.
The test system of assay [6] is Propionibacterium acnes. Description: microbe, parasite or virus in culture. As to conditions: Cutibacterium acnes, read-out: antibacterial activity (MIC) of boric acid alone.
The test system of assay [7] is MRSA. Nature of the assay: Additional cross MIC test using 5% FBS-added CAMHB, with FIC index. The note with it: concentration of each component in the combination.
For assay [8], the system named is Propionibacterium acnes. Description: Number of cells after 48 hour anaerobic incubation in 5% FBS-supplemented GAM medium. It is filed as cell-based. As to conditions: lotilibcin 0.1 μg/mL alone, initial 2.8 × 10^6.
Assay [9] relates to MRSA.
[10] abbreviates: read-out: Minimum Inhibitory Concentration Against MRSA Used in Animal Model (MIC), CAMHB, no 5% FBS.
The mark [11] stands for this setting: read-out: Minimum Inhibitory Concentration Against MRSA Used in Animal Model (MIC), CAMHB, with 5% FBS.

Molecules are shown by their SMILES. In brackets after ≈: the same amount, converted by molar mass. Read-outs that look alike come from different tables or passages of the source. Numbered stars: 1 amine (or outer) side, 2 acyl side, 3 side chain; on linkers, the order of the positions; unused ones are H or OH. Bridge positions count the residues as written; N and C are the ends. Square brackets hold non-standard residues; d marks the D form. Peptide text beside a SMILES is read from it. ξ: configuration not given here. ξAsn(3ξ-OH) = NC(=O)C(O)C(N)C(=O)O; X1 = CC(C)CCCC(CC(=O)[*:1])O[*:2]; NMeF = CN[CH](Cc1ccccc1)C(=O)O; NMeV = CN[CH](C(=O)O)C(C)C; Orn = NCCC[CH](N)C(=O)O

For `C/C(=C\C(=O)OCCCCCCCCC(=O)O)C[C@@H]1OC[C@H](C[C@@H]2O[C@H]2[C@@H](C)[C@H](C)O)[C@@H](O)[C@H]1O` [Mupirocin, mupirocin], the MIC was 0.125 µg/mL (≈ 0.00025 mM) in assay [1] (setting [10]) and 0.5 µg/mL (≈ 0.000999 mM) in assay [1] (setting [11]).
In the case of `OB(O)O` [Boric acid], the “change in the number of cells (CFUs in skin tissue)” value in [2] (1% boric acid alone, single topical dose) is given as “on the same level as or worse than the result of the negative control”. In addition, the “antibacterial efficacy in animal infection models” value in [2] (boric acid alone 0.1% to 1%) is on record as “no antibacterial efficacy”. Moreover, the “minimum concentration of boric acid necessary for enhancing the anti-MRSA activity of lotilibcin” value in the assay with MRSA [3] is 100 µg/mL. For the same molecule, the MIC in assay [1] (setting [10]) was found to be 2500 µg/mL (≈ 40.4 mM); in assay [1] (setting [11]), 2500 µg/mL (≈ 40.4 mM); in [1] (read-out: concentration exhibiting antibacterial activity (MIC), used solely, not influenced by presence or absence of serum component (FBS)) it was 2500 µg/mL (≈ 40.4 mM); in assay [4], 2500 µg/mL (≈ 40.4 mM); in the assay on MRSA [5], 5000 µg/mL; in the assay on Propionibacterium acnes [6], 1250 µg/mL (≈ 20.2 mM). Moreover, in the assay on MRSA [7], the “point of synergy (concentration) in table 7” value came to 313 µg/mL.
With `CC(C)CCCC1CC(=O)NC(CO)C(=O)NC(C(O)C(N)=O)C(=O)NC(CO)C(=O)NCC(=O)N(C)C(Cc2ccccc2)C(=O)NC(CC(C)C)C(=O)NC(CCCN)C(=O)NC(CCC(=O)O)C(=O)NC(CC(N)=O)C(=O)NC(Cc2c[nH]c3ccccc23)C(=O)NC(CCCN)C(=O)N(C)C(C(C)C)C(=O)O1` (centres unmarked) [Lotilibcin, lotilibcin] (S[ξAsn(3ξ-OH)]SG[NMeF]L[Orn]ENW[Orn][NMeV]; linker N-C via X1; configuration not given here), the “antibacterial efficacy (change in number of CFUs in skin tissue)” value is “comparable to that of 2% mupirocin” in assay [2] (0.5% lotilibcin alone, single topical dose) and “dose-dependent efficacy” in [2] (lotilibcin alone 0.02%, 0.2%, 0.5%, single topical dose, 24 hours). In addition, the “Number of cells After 48 hours” value in the assay with Propionibacterium acnes [8] is 1.3 × 10^6 CFU/mL. The “MIC in the presence of 5% FBS, Anti-MRSA activity of 1st generation” value in the assay with MRSA [9] (1st generation bacteria) came to 0.25 µg/mL. Further, the “MIC in the presence of 5% FBS, Anti-MRSA activity of 3rd generation” value in the assay with MRSA [9] (3rd generation bacteria, test substance alone) was determined as 32 µg/mL. The “Antibacterial activity of lotilibcin (MIC)” value is 1.0 µg/mL in the assay with Bacillus anthracis (No serum) and 0.1 µg/mL in the assay with Bacillus anthracis (With serum (5% FBS)). For the same molecule, in the assay on MRSA [7], the “point of synergy (concentration) in table 7” value stood at 0.03 µg/mL.

The values above are taken from US20210244790A1 (priority 2018, published 2021).
